Measured values from patent publication US20160136194A1, “Pharmaceutical composition comprising a proton pump inhibitor and a prebiotic for the treatment of ulcerous lesions of the stomach and duodenum” (priority 2010, published 2016).

Tests used:
Helicobacter pylori [1] = assay: Urease test of gastric mucosa biopsy material; assay type: in vivo; conditions: share of patients positive, n = 10
Source text: (§1) There were enrolled 80 patients aged 19 to 57 years in the study: males and females with newly diagnosed gastric and duodenal ulcer, five from them with Zollinger-Ellison syndrome.
(§2) All patients were divided into 8 groups of 10 patients each, 4 groups of them were experimental: the declared dosage forms on the base of PPI and prebiotic were orally administered by them. For the first group active components of the composition were omeprazole and a lactulose; for the second group—pantoprazole and prebiotic lactitol; for the third group—lansoprazole, and prebiotic inulin; for the fourth group—rabeprazole and prebiotic amino acids (glutamic acid). 5th, 6th, 7th and 8th groups were control: patients of the 5th group received monotherapy by omeprazole; patients of the 6th group—by lansoprazole; patients of the 7th group—esomeprazole and patients of the 8th group of patients received standard therapy for the elimination of H. pylori: omeprazole, metronidazole and clarithromycin.
(§3) All patients received treatment according to the similar regimen: took the composition of PPI and prebiotic 1-2 times a day within 14 days.
2. Urease test. The biopsy material of the gastric mucosa was examinated for the presence of the urease—enzyme specific for Helicobacter pylori (Helicobacter Test INFAI).

Helicobacter pylori [2] = assay: Cytological test of the biopsy material of the gastric mucosa; assay type: in vivo; conditions: share of patients positive, n = 10
Source text: as §1, §2, §3
1. Cytological and histological examination of imprint smear of the biopsy material of the gastric antrum mucosa, obtained by gastroscopy. Thus, microcolonies of Helicobacter pylori are detected using special stain.

Helicobacter pylori [3] = assay: Microbiological method: isolation of H. pylori culture from patient material, before and after therapy; assay type: in vivo; conditions: share of patients positive, n = 10
Source text: as §1, §2, §3
4. Microbiological method. Inoculation and isolation of pure culture of H. pylori from the biopsy material of the mucosa, obtained by gastroduodenoscopy.
Before the beginning and after the termination of the eradication therapy all 80 patients have been enrolled in the clinical trials were microbiologically tested on the presence of H. pylori, lactobacilli and bifidobacteria in the stomach and duodenum content.
The material was analyzed in microbiological laboratory of the Pasteur Institute of Epidemiology and Microbiology, St. Petersburg.
Strains of H. pylori were identified on the base of analysis of colony and cell morphology, cultural, biochemical and tinctorial properties of microorganisms. Lactobacillus strains isolated in the material from the intestine additionally were identified on catalase and oxidase activity.
The bacterium quantity in the material was estimated by calculation of colonies on dense nutrient mediums that were represented in the form of Ig CFU/ml.

gastric acid secretion = conditions: compared with PPI of the first generation; cited from earlier work
[4] = after therapy (1-2 times a day, 14 days)

Compound	Urease test (Helicobacter pylori [1]; after therapy (14 days)) [%]	Urease test (Helicobacter pylori [1]; before therapy) [%]	Cytological test of the biopsy material of the gastric mucosa (Helicobacter pylori [2]; after therapy (14 days)) [%]	Cytological test of the biopsy material of the gastric mucosa (Helicobacter pylori [2]; before therapy) [%]	Isolation of Helicobacter pylori from stomach content (Helicobacter pylori [3]; [4]) [%]	Isolation of Helicobacter pylori from stomach content (Helicobacter pylori [3]; before therapy, peptic ulcer) [%]	Kept pH value <4 in stomach, above PPI of the first generation (gastric acid secretion)
Cc1c(OCC(F)(F)F)ccnc1C[S+]([O-])c1nc2ccccc2[nH]1 (stereo not shown) [6th group, lansoprazole]	60	70	40	60	60	100	–
COc1ccc2nc([S@@+]([O-])Cc3ncc(C)c(OC)c3C)[nH]c2c1 [7th group, esomeprazole]	40	60	40	70	50	100	10-15%
COc1ccc2[nH]c([S+]([O-])Cc3ncc(C)c(OC)c3C)nc2c1 (stereo not shown) [5th group, omeprazole]	30	70	40	80	50	100	–
